Data taken from PMC10783034, “Pharmacokinetic and pharmacodynamic evaluation of the atypical tetracyclines chelocardin and amidochelocardin in murine infection models” (Microbiology Spectrum, 2023).
Values after ≈ are worked out from the molar mass of the structure shown. Each block holds one compound with its values, some of them ahead of it.

Experiments:
E. coli ATCC 25922 [1] = assay: MIC determination; assay type: cell-based; conditions: Escherichia coli, ATCC25922; MHB medium; read-out: MIC
Description: (§1) The assay was conducted as described previously ([54]) with the following modifications. The MIC was tested against the K. pneumoniae strain ATCC 43816 in an MHB (not cation-adjusted) medium. CHD and CDCHD were tested in concentrations ranging from 0.078 to 10 µg/mL. Moreover, the MIC was determined for the following strains: K. pneumoniae DSM-30104, E. faecium DSM-20477, S. aureus DSM-346, P. aeruginosa DSM-11128, A. baumannii DSM-30008, E. aerogenes DSM-30053, E. coli ATCC 25922, and E. coli C175-94. All strains were grown in MHB medium, except for E. faecium, which was grown in TSB. CHD, epi-CDH, and CDCHD were tested in concentrations ranging from 0.125 to 64 µg/mL as described previously ([19]).

E. coli ATCC 25922 [2] = assay: Neutropenic thigh infection model in CD-1 mice; assay type: in vivo; conditions: 20 mg/kg IV BID, positive control
Description: (§2) The inoculum for K. pneumoniae ATCC 43816 was prepared freshly as described previously to yield 1 × 10^4 cfu/mL ([56]). The inoculum of the E. coli ATCC 25922 was diluted from a frozen stock to 1.4 × 10^6 cfu/ml. N = 6 animals per group were used for both tested strains. N = 4 mice were used in the pre-treatment group in the neutropenic thigh infection model with E. coli ATCC 25922. Mice were rendered neutropenic by administration of 150 mg/kg and 100 mg/kg cyclophosphamide intraperitoneally on days −4 and −1, respectively. On the day of infection (day 0), mice received 30 µL of the inoculum of K. pneumoniae ATCC 43816 into each lateral thigh under isoflurane anesthesia, corresponding to 6 × 10^2 cfu/mouse. In the model with E. coli, mice received 50 µL of the inoculum of E. coli into each lateral thigh under isoflurane anesthesia, corresponding to 1.4 × 10^5 cfu/mouse. Whilst still under anesthesia, mice were administered a dose of Buprenorphine (0.03 mg/kg) subcutaneously for pain relief. 24 hours after infection, mice were euthanized by slowly introducing CO2 and cardiac puncture to remove blood from the heart immediately after death. Kidneys and thighs were aseptically removed. 24 hours after infection, the clinical score of every individual animal was assessed. Clinical scoring comprises the assessment of different parameters such as spontaneous behavior, posture, appearance, and provoked behavior. Each parameter was assessed with a score of 0 to 3 (ascending severity from 0 to 3). The humane endpoint was reached when the clinical score of a single parameter was 3 or if the total clinical score was higher than 8. Whole blood was collected into Eppendorf tubes coated with 0.5 M EDTA. Organs were homogenized in 0.9% NaCl solution. Organs and blood were plated onto agar plates in duplicates in serial dilutions and incubated at 37°C for 24 hours. 25 µL per dilution of the homogenized organ was spotted onto agar plates. In addition, 1 mL of homogenized organ is streaked onto an agar plate in technical duplicates. If no single colony is observed then, this would result in 0 cfu/mL. Thus, the threshold of detection is 0 log10 cfu/g. The groups used in the different neutropenic thigh infection models are found in Tables S4 through S7. In brief, levofloxacin with 3.3 mg/kg TID IP was used as a positive control antibiotic for the K. pneumoniae model, whereas ciprofloxacin with 20 mg/kg BID IV was used for the E. coli model, respectively. The rationale for TID dosing was based on the PK/PD index of fAUC/MIC for fluoroquinolones ([57] [–] [59]). […] Moreover, CHD and CDCHD were administered at 10 mg/kg SC QID (t = 1,3,5,7 hours), 15 mg/kg SC TID (t = 1,4,7 hours), and 50 mg/kg SC QD (t = 1 hour) (Tables S5 and S6). In the E. coli neutropenic thigh infection model, CHD and CDCHD, respectively, were administered at 50 mg/kg IV QD (t = 1 hour) and 15 mg/kg IV BID (t = 1 and 6 hours) (Table S7).
(§3) For the neutropenic thigh infection model with E. coli ATCC 25922, the thighs were regarded as two independent infection sites throughout the experiment. For statistical analysis, individual thighs (left and right) were treated as separate samples although these were not completely independent values. For the neutropenic thigh infection model with K. pneumoniae ATCC 43816, the individual thighs (left and right) were treated as one sample. For the efficacy models, the non-parametric Kruskal-Wallis test was used with GraphPad Prism 9.4.1. For the ascending urinary tract infection model, an ordinary one-way ANOVA with Dunnett’s multiple comparison test was used with GraphPad Prism 9.4.1.

E. coli C175-94 [3] = assay: MIC determination; assay type: cell-based; conditions: Escherichia coli, C17594; MHB medium; read-out: MIC
Description: as §1

E. coli C175-94 [4] = assay: Ascending urinary tract infection model in OF-1 mice; assay type: in vivo; conditions: CHD/CDCHD 12 mg/kg SC BID, gentamicin 100 mg/kg SC BID
Description: (§4) The model was conducted as described previously ([27], [60]). In brief, n = 21 animals were used per group in the main study, and n = 3 animals per group in satellite groups for histopathological analysis. Three days before the start of the study and during the study, mice had free access to 5% glucose as drinking water. Fresh overnight colonies of E. coli from a 5% horse blood agar plate were suspended in PBS pH 7.4 to approximately 10^9 cfu/mL. Approximately 1 hour before inoculation, mice were treated orally with […] Nurofen (20 mg ibuprofen/mL corresponding to approximately 30 mg/kg) as a pain relief. Urine was removed from the bladder by gently pressing the abdomen and mice were anaesthetized with 0.15 mL Zoletil mix SC. Thereafter, the mice were inoculated. A syringe with a catheter, containing the bacterial suspension was inserted via the urethra into the bladder and 50 µL of the inoculum was slowly injected into the bladder. Hereafter, the mouse was placed in the cage and kept in a warming cabinet until fully awake (approximately 4 hours). The mice were treated with CHD (12 mg/kg SC BID), CDCHD (12 mg/kg SC BID), gentamicin (100 mg/kg SC BID), or vehicle BID (2nd dose was administered approximately 6 hours after the 1st dose on each day) on day 1, that is, first dose around 24 hours post-infection, and day 2 post-inoculation. The mice were observed during the study and scored based on their behavior and clinical signs. Clinical scoring comprised assessment of piloerection in the skin, activity (movement, curiosity), and appearance of eyes. The scoring range comprised 0–4. In our model, a maximum score of 1; thus, only mild discomfort was observed. On day 3 post-inoculation and after sampling urine, mice were euthanized by cervical dislocation, and bladder and kidneys were removed from 21 mice in each treatment group aseptically for cfu determination. The bladder and kidneys were stored at −80°C and later homogenized in 0.5 or 1 mL saline, respectively. Colony counts of urine were determined immediately. From the three additional mice in each treatment group (satellite groups), urine and plasma were sampled and frozen at −80°C, and bladders, kidneys, and liver were collected in 4% buffered formalin. Cfu was determined in urine samples within 2–3 hours after sampling. Frozen organs were thawed and homogenized with steel beads using a tissue lyser. All samples, urine, kidney, and bladder, were 10-fold diluted in saline and 20 µL spots were applied on blue agar plates in duplicates. In addition, undiluted samples of urine (2–100 μL depending on the available amount of urine) were spread on a separate agar plate to determine the colony counts at the lowest possible detection level. All agar plates were incubated for 18–22 hours at 35°C in ambient air.
as §3

[5] = Histopathological analysis of kidneys and bladder in the ascending urinary tract infection model (satellite groups); assay type: in vivo, mice; parameters: histopathological score Papilla / histopathological score Bladder: scale not given here
Description: as §4
Approximately 3 µm thick sections of formalin-fixed, paraffin-embedded samples of liver and kidney were analyzed blinded, and randomized to the experimental groups by a trained veterinarian. […] Kidneys were analyzed for changes in the glomeruli (not found), tubular dilation (1 = mild or up to 20% of tubuli affected, 2 = moderate or 25-40% of tubuli affected, 3 = severe 50% or more), and inflammatory infiltrate in the pelvis (1 = mild, 2 = moderate, 3 = severe).

K. pneumoniae ATCC 43816 [6] = assay: MIC determination; assay type: cell-based; conditions: Klebsiella pneumoniae, ATCC43816; MHB (not cation-adjusted) medium; read-out: MIC
Description: as §1

K. pneumoniae ATCC 43816 [7] = assay: Neutropenic thigh infection model in CD-1 mice; assay type: in vivo; conditions: levofloxacin 3.3 mg/kg IP TID
Description: as §2, §3

[8] = infected mice, CHD/CDCHD 12 mg/kg SC BID, gentamicin 100 mg/kg SC BID
[9] = 24 hours after infection, CHD/CDCHD 10 mg/kg SC QD or BID, vs vehicle

Structure (SMILES): O=C(O)c1cn(C2CC2)c2cc(N3CCNCC3)c(F)cc2c1=O [ciprofloxacin, reference compound]
MIC (E. coli ATCC 25922 [1]): 0.008 µg/mL (≈ 0.0241 µM)
bacterial burden in the thigh, compared with CHD and CDCHD (E. coli ATCC 25922 [2]): exerted a stronger effect

Structure (SMILES): CNC(C)C1CCC(N)C(OC2C(N)CC(N)C(OC3OCC(C)(O)C(NC)C3O)C2O)O1 (stereo not drawn) [gentamicin, reference compound]
MIC (E. coli C175-94 [3]): 0.75 µg/mL (≈ 1.57 µM)
animals with sterile kidneys (E. coli C175-94 [4]; control animals 23.8%): 95.2%
bacterial burden in kidneys (E. coli C175-94 [4]; day 3, vs vehicle): strong and significant reduction
bacterial burden in the bladder (E. coli C175-94 [4]; day 3, vs vehicle): The same was observed for gentamicin
histopathological score Bladder ([5]; animal No. 1): 1
histopathological score Bladder ([5]; animal No. 2): 0
histopathological score Bladder ([5]; animal No. 3): 1
histopathological findings in bladder [5, 8]: mild, focal, submucosal inflammatory aggregates
histopathological findings in kidneys [5, 8]: only a mild tubulus dilation without inflammatory cells in the renal pelvis

MIC (K. pneumoniae ATCC 43816 [6]): 0.08 µg/mL (≈ 0.221 µM)
Structure (SMILES): C[C@H]1COc2c(N3CCN(C)CC3)c(F)cc3c(=O)c(C(=O)O)cn1c23 [levofloxacin, reference compound]
bacterial burden in blood (K. pneumoniae ATCC 43816 [7]; [9]): The same was found in blood
bacterial burden in the thigh (K. pneumoniae ATCC 43816 [7]; [9]): A significant reduction of bacterial burden
bacterial burden in the kidney (K. pneumoniae ATCC 43816 [7]; higher-dose studies: 10 mg/kg SC QID, 15 mg/kg SC TID, 50 mg/kg SC QD): did not reduce bacterial burden with statistical significance
